Assay results as given in ChEMBL document CHEMBL1154159, “Didanosine ester prodrugs: synthesis, albumin binding properties and pharmacokinetic studies in rats” (Eur J Med Chem, 2009).

What was measured:
[1] = Chemical stability in phosphate buffered saline assessed as compound degradation at 0.05 M at pH 7.4 at 5 degC after 1 hr by HPLC; type: physicochemical; settings: buffer, pH 7.4, 1 h
[2] = Chemical stability in phosphate buffered saline assessed as compound degradation at 0.05 M at pH 7.4 at 25 degC after 1 hr by HPLC; type: physicochemical; settings: buffer, pH 7.4, 1 h
[3] = Chemical stability in phosphate buffered saline assessed as compound degradation at 0.05 M at pH 7.4 at 40 degC after 1 hr by HPLC; type: physicochemical; settings: buffer, pH 7.4, 1 h
[4] = Chemical stability in phosphate buffered saline assessed as compound degradation at 0.05 M at pH 7.4 at 5 to 40 degC after 14 days by HPLC; type: physicochemical; settings: buffer, pH 7.4, 336 h
[5] = Clearance in Rowet nu/nu rat plasma at 15 mg/kg, iv after 5 mins to 6 hrs; type: ADME, organism-based; parameters: dose 15 mg/kg, route intravenous
[6] = AUC (0 to 360 mins) in Rowet nu/nu rat plasma at 15 mg/kg, iv after 5 mins to 6 hrs; type: ADME, organism-based; parameters: time < 6 hr, dose 15 mg/kg, route intravenous
[7] = Half life in rat at 125 mg/kg/hr, iv after 2 hrs; type: ADME, organism-based; parameters: route intravenous; settings: in vivo
[8] = Clearance in Rowet nu/nu rat plasma at […], iv after 5 mins to 6 hrs; type: ADME, organism-based
[9] = AUC (0 to 360 mins) in Rowet nu/nu rat plasma at […], iv after 5 mins to 6 hrs; type: ADME, organism-based; parameters: time < 6 hr, route intravenous

Row | Stability [1] | Stability [2] | Stability [3] | Stability [4] | clearance [5] [mL/min/kg] | AUC(0-t) at 6 h [6] [ng·h/mL] | half-life [7] [h] | clearance [8] [mL/min/kg] | AUC(0-t) at 6 h [9] [ng·h/mL] | Compound
1 | Stable | Stable | Stable | Unstable | – | – | – | – | – | O=C(O)CCCCCCCCCCC(=O)OC[C@H]1CC[C@@H](n2cnc3c(=O)[nH]cnc32)O1
2 | Stable | Stable | Stable | Unstable | 107 | 2680 | – | – | – | O=C(O)CCCCCCCC(=O)OC[C@H]1CC[C@@H](n2cnc3c(=O)[nH]cnc32)O1
3 | – | – | – | – | – | – | 1 | 134 | 2100 | O=c1[nH]cnc2c1ncn2[C@H]1CC[C@@H](CO)O1 [DIDANOSINE]
4 | Stable | Stable | Stable | Unstable | – | – | – | – | – | O=C(O)CCCCC(=O)OC[C@H]1CC[C@@H](n2cnc3c(=O)[nH]cnc32)O1
